The record followed here is US20230192657A1, “1,2,4-TRIAZOLINONE CB1 INHIBITORS” (Goldfinch Bio, Inc., priority 2020, published 2023).

Some results are limits rather than exact numbers.

The target in this experiment is CB1 receptor (Homo sapiens, UniProt P21554). Nature of the experiment: CB1 cAMP Antagonist Assay (LANCE Ultra cAMP kit). It is filed as cell-based. As to conditions: Flp-In CHO cells stably expressing the CB1 receptor; forskolin and CP55940 agonist at EC90; cAMP FRET readout. (In TR-FRET formats the signal depends on donor and acceptor labels being close together.)
CB1 receptor, sequence (P21554 whole entry): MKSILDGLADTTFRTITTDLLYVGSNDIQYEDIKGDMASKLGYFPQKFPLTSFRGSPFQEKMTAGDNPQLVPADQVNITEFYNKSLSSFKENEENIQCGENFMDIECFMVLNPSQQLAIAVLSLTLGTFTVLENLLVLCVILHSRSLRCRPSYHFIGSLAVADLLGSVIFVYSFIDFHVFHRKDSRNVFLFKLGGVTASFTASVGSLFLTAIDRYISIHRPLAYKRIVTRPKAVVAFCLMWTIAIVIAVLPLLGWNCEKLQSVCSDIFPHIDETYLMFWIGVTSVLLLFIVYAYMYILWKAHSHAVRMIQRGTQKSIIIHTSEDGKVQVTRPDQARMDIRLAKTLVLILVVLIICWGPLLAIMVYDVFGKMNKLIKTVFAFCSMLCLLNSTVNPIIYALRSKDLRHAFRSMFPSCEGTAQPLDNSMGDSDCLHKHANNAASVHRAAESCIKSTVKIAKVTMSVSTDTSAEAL
Regarding `COc1ccc(Cn2nc(N3CC(c4ccccc4)C(c4ccc(Cl)cc4)=N3)n([C@@H](C)C(N)=O)c2=O)cc1OC` (stereo partly drawn) [Compound 194, (2S)-2-[3-[3-(4-chlorophenyl)-4-phenyl-4,5-dihydropyrazol-1-yl]-1-[(3,4-dimethoxyphenyl)methyl]-5-oxo-1,2,4-triazol-4-yl]propanamide], the IC50 (commonly the concentration that inhibits the measured activity by half) was 100 to 1000 nM.

In turn, `Cn1c(N2CC(c3ccccc3)C(c3ccc(Cl)cc3)=N2)nn(CCc2ccc(C(=O)O)cc2)c1=O` (stereo not drawn) [Compound 195] displayed an IC50 of more than 5000 nM.

In the case of `Cc1ncc(Cn2nc(N3CC(c4ccccc4)C(c4ccc(Cl)cc4)=N3)n(C)c2=O)cn1` (stereo not drawn) [Compound 196], the IC50 lay within 100 to 1000 nM.

Consider `COc1ccc(Cn2nc(N3CC(c4ccccc4)C(c4ccc(Cl)cc4)=N3)n([C@H](C)C(N)=O)c2=O)cc1OC` (stereo partly drawn) [Compound 197, (2R)-2-[3-[3-(4-chlorophenyl)-4-phenyl-4,5-dihydropyrazol-1-yl]-1-[(3,4-dimethoxyphenyl)methyl]-5-oxo-1,2,4-triazol-4-yl]propanamide], for which the IC50 fell in the range of 100 to 1000 nM.

In turn, `C[C@H](C(N)=O)n1c(N2C[C@@H](c3ccccc3)C(c3ccc(Cl)cc3)=N2)n[nH]c1=O` [Compound 199] returned an IC50 of more than 5000 nM.

Take `Cn1c(N2C[C@H](c3ccccc3)C(c3ccc(Cl)cc3)=N2)nn(CCc2ccc(C(=O)NCCO)cc2)c1=O` [Compound 200]: the IC50 lay in the range of 100 to 1000 nM.

The compound `C[C@@H](C(N)=O)n1c(N2C[C@@H](c3ccccc3)C(c3ccc(Cl)cc3)=N2)nn(Cc2ccc(Cl)cn2)c1=O` [Compound 201] registered a half-maximal inhibitory concentration (IC50) of 100 to 1000 nM.

As to `Cn1c(N2C[C@H](c3ccccc3)C(c3ccc(Cl)cc3)=N2)nn(CCc2ccc(C(N)=O)cc2)c1=O` [Compound 202, 4-(2-[3-[(4S)-3-(4-chlorophenyl)-4-phenyl-4,5-dihydropyrazol-1-yl]-4-methyl-5-oxo-1,2,4-triazol-1-yl]ethyl)benzamide], the IC50 fell in the range of 100 to 1000 nM.

For `C[C@@H](C(N)=O)n1c(N2C[C@H](c3ccccc3)C(c3ccc(Cl)cc3)=N2)n[nH]c1=O` [Compound 203, (2S)-2-[3-[(4S)-3-(4-chlorophenyl)-4-phenyl-4,5-dihydropyrazol-1-yl]-5-oxo-1H-1,2,4-triazol-4-yl]propanamide], the IC50 is more than 5000 nM.

Consider `C[C@H](C(N)=O)n1c(N2C[C@H](c3ccccc3)C(c3ccc(Cl)cc3)=N2)nn(Cc2ccc(Cl)cn2)c1=O` [Compound 205], for which the IC50 was less than 100 nM.

`C[C@H](C(N)=O)n1c(N2C[C@H](c3ccccc3)C(c3ccc(Cl)cc3)=N2)n[nH]c1=O` [Compound 206] registered an IC50 of more than 5000 nM.

For the compound `C[C@@H](C(N)=O)n1c(N2C[C@H](c3ccccc3)C(c3ccc(Cl)cc3)=N2)nn(Cc2ccc(Cl)cn2)c1=O` [Compound 207], the IC50 is less than 100 nM.

Turning to `O=c1[nH]nc(N2C[C@@H](c3ccccc3)C(c3ccc(Cl)cc3)=N2)[nH]1` [Compound 208, 5-[(4R)-3-(4-chlorophenyl)-4-phenyl-4,5-dihydropyrazol-1-yl]-2,4-dihydro-1,2,4-triazol-3-one], the IC50 is more than 5000 nM.

On to `C[C@@H](C(N)=O)n1c(N2C[C@@H](c3ccccc3)C(c3ccc(Cl)cc3)=N2)n[nH]c1=O` [Compound 209, (2S)-2-[3-[(4R)-3-(4-chlorophenyl)-4-phenyl-4,5-dihydropyrazol-1-yl]-5-oxo-1H-1,2,4-triazol-4-yl]propanamide], for which the half-maximal inhibitory concentration (IC50) was more than 5000 nM.

For `Cn1c(N2C[C@@H](c3ccccc3)C(c3ccc(Cl)cc3)=N2)nn(CCc2ccc(C(=O)NCCO)cc2)c1=O` [Compound 210], the IC50 was more than 5000 nM.

Regarding `O=c1[nH]nc(N2C[C@H](c3ccccc3)C(c3ccc(Cl)cc3)=N2)[nH]1` [Compound 211, 5-[(4S)-3-(4-chlorophenyl)-4-phenyl-4,5-dihydropyrazol-1-yl]-2,4-dihydro-1,2,4-triazol-3-one], the IC50 was more than 5000 nM.

`Cn1c(N2C[C@@H](c3ccccc3)C(c3ccc(Cl)cc3)=N2)nn(CCc2ccc(C(N)=O)cc2)c1=O` [Compound 212] yielded an IC50 of more than 5000 nM.

`C[C@H](C(N)=O)n1c(N2C[C@@H](c3ccccc3)C(c3ccc(Cl)cc3)=N2)nn(Cc2ccc(Cl)cn2)c1=O` [Compound 213]: the IC50 is more than 5000 nM.
